Assay [1] has as its system Streptococcus faecalis 2041. The format is cell-based. An excerpt:
(§1) Table I summarizes the minimal inhibitory concentrations (MIC's) at which the two illustrative compounds, anhydro-LY146032 and isomer-LY146032, inhibit certain organisms, as determined by standard agar-dilution assays.

The test system of assay [2] is Staphylacoccus aureus X400 (methicillin-resistant strain). It counts as cell-based.
Text: as §1

The subject of assay [3] is Streptococcus pyogenes C203. It counts as cell-based.
Text: as §1

In assay [4] the test system is Streptococcus faecalis X66. It counts as cell-based.
Text: as §1

Assay [5] concerns Staphylacoccus epidermidis 222. It counts as cell-based.
Text: as §1

Assay [6] concerns Staphylacoccus aureus XL1. The format is cell-based.
Text: as §1

The test system of assay [7] is Staphylacoccus aureus V41 (penicillin-resistant strain). The format is cell-based.
Text: as §1

Assay [8] has as its system Haemophilus influenzae CL (ampicillin-sensitive strain). Description: Agar-dilution MIC. The format is cell-based.
Text: as §1

Assay [9] deals with Haemophilus influenzae 76 (ampicillin-resistant strain). Description: Agar-dilution MIC. It counts as cell-based. Details: unit not given beside the values.
Text: as §1

In the next assay the test system is Streptococcus pyogenes. Put plainly: Experimental infection in mice, subcutaneous ED50. It counts as in vivo. Conditions: two doses. The procedure:
(§2) The new derivatives of this invention have also shown in vivo antimicrobial activity against experimental bacterial infections. When two doses of test compound were administered to mice in experimental infections, the activity observed was measured as an ED50 value [effective dose in mg/kg to protect 50% of the test animals: see Warren Wick, et al., J. Bacteriol. 81, 233-235 (1961)].

A further assay concerns Staphylococcus aueus. Put plainly: Experimental infection in mice, subcutaneous ED50. It counts as in vivo. The conditions noted are these: two doses. The procedure:
as §2

For another assay, the system named is Streptococcus pneumoniae. Description: Experimental infection in mice, subcutaneous ED50. It counts as in vivo. Conditions: two doses. The procedure: as §2

Values after ≈ are worked out from the molar mass of the structure shown. A value given as a limit tells only on which side of the number the result lay.

Consider `CCCCCCCCCC(=O)N[C@@H](Cc1c[nH]c2ccccc12)C(=O)N[C@@H](CC(N)=O)C(=O)N[C@@H](CC(=O)O)C(=O)N[C@@H]1C(=O)NCC(=O)N[C@@H](CCCN)C(=O)N[C@@H](CC(=O)O)C(=O)N[C@H](C)C(=O)N[C@H](C(=O)O)CC(=O)NCC(=O)N[C@H](CO)C(=O)N[C@@H]([C@H](C)CC(=O)O)C(=O)N[C@@H](CC(=O)c2ccccc2N)C(=O)O[C@@H]1C` [Isomer-LY146032], for which the MIC in assay [1] was 32 µg/mL (≈ 19.7 µM); in [2], 8 µg/mL (≈ 4.94 µM); in assay [3] it was 2 µg/mL (≈ 1.23 µM); in [4], 128 µg/mL (≈ 79 µM); in assay [5], 8 µg/mL (≈ 4.94 µM); in [6] it was 8 µg/mL (≈ 4.94 µM). The MIC in [7] is 8 µg/mL (≈ 4.94 µM); in assay [8] it was “—^f (>128)”; in assay [9], “—^ (>128)”. In addition, the “Subcutaneous ED50” value in the assay with Streptococcus pyogenes is reported as <1.25 mg/kg; in the assay on Staphylococcus aueus it was 10.68 mg/kg; with Streptococcus pneumoniae, 3.40 mg/kg.
With `CCCCCCCCCC(=O)N[C@@H](Cc1c[nH]c2ccccc12)C(=O)N[C@@H](CC(N)=O)C(=O)N[C@@H](CC(=O)O)C(=O)N[C@@H]1C(=O)NCC(=O)N[C@@H](CCCN)C(=O)N[C@@H](CC(=O)O)C(=O)N[C@H](C)C(=O)N[C@H]2CC(=O)N(CC(=O)N[C@H](CO)C(=O)N[C@@H]([C@H](C)CC(=O)O)C(=O)N[C@@H](CC(=O)c3ccccc3N)C(=O)O[C@@H]1C)C2=O` [Anhydro-LY146032], the MIC was found to be 16 µg/mL (≈ 9.98 µM) in assay [1]; 8 µg/mL (≈ 4.99 µM) in assay [2]; 1 µg/mL (≈ 0.624 µM) in assay [3]; 64 µg/mL (≈ 39.9 µM) in assay [4]; 4 µg/mL (≈ 2.5 µM) in [5]; 4 µg/mL (≈ 2.5 µM) in assay [6]. The MIC in [7] was 4 µg/mL (≈ 2.5 µM); in [8] it was “— (>128)”; in assay [9] it was “— (>128)”. The “Subcutaneous ED50” value came out at 1.15 mg/kg in the assay on Streptococcus pyogenes, 9.05 mg/kg in the assay on Staphylococcus aueus and 3.36 mg/kg with Streptococcus pneumoniae.

The values are drawn from patent USRE39071E1, “Anhydro-and isomer-a-21978c cyclic peptides” (Eli Lilly and Company, priority 1987, dated 2006).
